Source: patent publication US11014896B2, “TRPA1 and TRPV4 inhibitors and methods of using the same for organ-specific inflammation and itch” (Duke University, priority 2014, dated 2021)
“Also recorded” adds a separate entry of the source.

Columns and labels:
[1] = test system: primary mouse keratinocytes (1° MK); assay: UVB-evoked Ca++ signaling in primary mouse keratinocytes (fluo-4 imaging); assay type: cell-based; details: GSK205 20 μM
Description: Ca++ imaging of 1° MK was conducted following routine procedures. For UVB stimulation, a customized device was built. The system comprised a printed circuit board for electrical interconnects and mechanical support and an ultraviolet light-emitting diode (UV LED).
The operating wavelength was 295 nm (FIG. 2A), with a full-width half-max of 12 nm. The optical power was 500 mW. The focal point was aimed at the plane of the upper surface of the quartz coverslip, which was used to minimize UV absorption along the optical path towards the cells (FIG. 2A-FIG. 2C). The optical intensity at the focal point was estimated to be 150 mW/mm^2.
(§1) Ca++ imaging of mouse 1° MK in response to chemical activation of TRPV4 was conducted after loading with 2 μM fura2-AM, following a ratiometric Ca2+ imaging protocol with 340/380 nm […] for dual excitation. Ratios of emissions were acquired at 0.5 Hz. ΔR/R0 was determined as the fraction of the increase of a given ratio over baseline ratio, divided by baseline ratio. For stimulation of cells with UVB, where fura-2 was not suitable because of the proximity of stimulation with 340/380 nm and 295 nm, 2 μM fluo4-AM was used instead. Ca++ imaging was carried out at 488 nm excitation, acquisition of emissions at 0.5 Hz, expressed as ΔF/F0. In the custom-built UV optical system, UV LEDs were capped with a ball lens, a transparent optical window in the shape of a hemispherical lens (FIG. 2B). The LED output optical beam focused at 15-20 mm from the lens, with a spot diameter of approximately 1.5-2.0 mm (FIG. 2C). […] The thermal equilibration stage was set for physiological temperature.

TRPV4 [2] = biological target: T1, TRPV4 (Mus musculus, UniProt Q9EPK8); assay: GSK101-evoked Ca++ transient in 1° MK; assay type: cell-based; details: 5 nM GSK101; GSK205 20 μM
T1 construct: endogenous in cells; host or cells: primary mouse epidermal keratinocytes (1° MK), wild type
T1 sequence (Q9EPK8 whole entry): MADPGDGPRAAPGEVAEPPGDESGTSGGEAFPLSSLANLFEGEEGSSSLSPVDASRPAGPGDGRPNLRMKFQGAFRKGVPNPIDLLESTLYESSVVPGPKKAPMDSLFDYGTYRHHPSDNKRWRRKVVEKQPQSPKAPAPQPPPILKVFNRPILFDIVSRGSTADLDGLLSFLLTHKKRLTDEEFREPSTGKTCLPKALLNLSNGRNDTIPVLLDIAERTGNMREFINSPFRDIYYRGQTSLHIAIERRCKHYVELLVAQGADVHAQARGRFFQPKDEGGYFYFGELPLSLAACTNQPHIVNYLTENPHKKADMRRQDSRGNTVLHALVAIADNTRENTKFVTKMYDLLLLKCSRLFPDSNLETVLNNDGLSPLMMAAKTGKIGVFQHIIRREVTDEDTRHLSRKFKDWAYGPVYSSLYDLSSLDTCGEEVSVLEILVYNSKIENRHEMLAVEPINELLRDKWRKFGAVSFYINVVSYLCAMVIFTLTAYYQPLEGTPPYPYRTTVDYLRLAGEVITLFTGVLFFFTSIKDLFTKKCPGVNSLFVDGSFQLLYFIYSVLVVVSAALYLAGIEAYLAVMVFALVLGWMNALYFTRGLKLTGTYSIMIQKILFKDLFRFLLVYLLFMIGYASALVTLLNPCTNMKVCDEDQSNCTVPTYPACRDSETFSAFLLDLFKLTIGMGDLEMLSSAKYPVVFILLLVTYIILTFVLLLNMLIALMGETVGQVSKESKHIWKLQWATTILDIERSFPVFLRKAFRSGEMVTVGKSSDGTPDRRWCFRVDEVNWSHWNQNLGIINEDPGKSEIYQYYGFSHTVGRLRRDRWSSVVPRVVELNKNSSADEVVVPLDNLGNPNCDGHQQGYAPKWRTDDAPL
Description: as §1, with “temperature. We confirmed the non-thermal nature of UVB stimulation using the customized 295 nm LED device in a dedicated experiment (FIG. 2D), thus confirming the specific modality of stimulation as UVB.” for “temperature.”

TRPV4 [3] = biological target: T1, TRPV4; assay: 4α-PDD-evoked Ca++ signaling in 1° MK (fura-2); assay type: cell-based; details: fura-2 ratiometric imaging
Description: as §1, with “temperature. We confirmed the non-thermal nature of UVB stimulation using the customized 295 nm LED device in a dedicated experiment (FIG. 2D), thus confirming the specific modality of stimulation as UVB.” for “temperature.”

[4] = Nocifensive behavior in response to ET1 footpad injection (von Frey); assay type: in vivo, mouse; details: footpad injection of ET1; WT and oil-treated iKO (control) mice
Description: ET1 injections: After determining base-line withdrawal thresholds, each animal received an intraplantar injection of 10 μL 100 nM ET-1 plus contralateral vehicle. Thresholds were again evaluated 1 hour after injection.
Hindpaw mechanical withdrawal thresholds were determined by the automated von Frey hair method, using a 0.5 mm diameter stainless steel filament, part of an automated plantar touch stimulator (Ugo Basile, Modena, Italy). Relevant detail included pre-test acclimatization in a quiet room for 30 min, conducting the test at the same time of day and blinded observers. The stimulus was delivered to the hindpaw, automatically discontinued upon withdrawal, and its intensity recorded automatically. 6-8 trials per animal were conducted, with equal exposure of both hindpaws, leading to an average withdrawal threshold. Results are reported as […], which was calculated by subtracting post-treatment from pre-treatment measurements, expressed as % or relative to 1.0.

Substance: ET1: endothelin-1, cognate peptide ligand of endothelin receptors
- UVB-evoked Ca++ signaling (ΔF/F0) [1]: significant increase; also recorded: augmentation
- GSK101-evoked Ca++ transient (TRPV4 [2]): augmented; also recorded: increase in signal
- 4α-PDD-evoked Ca++ transients on co-application (TRPV4 [3]): significant increase in the response
- mechanical allodynia / von Frey withdrawal thresholds after ET1 injection [4]: significantly lowered; also recorded: significant levels of mechanical allodynia
